Measured values reported in patent US20100331267A1, “USE OF CYCLOHEXANEHEXOL DERIVATIVES IN THE TREATMENT OF ALPHA-SYNUCLEINOPATHIES” (priority 2007, published 2010).

Assays:
Aβ peptide fibrils = details: stated as previously shown; cited from earlier work
[1] = biological target: T1, A53T mutant of α-synuclein (Homo sapiens, UniProt P37840, A53T); test: Negative stain electron microscopy of α-synuclein fibre formation; assay type: biochemical
T1 construct: made in house; host or cells: E. coli
Method: (§1) α-Synuclein will be purified from E. coli expressing the native and the aggregation prone A53T mutant proteins via chromatography on a Q-sepharose column.[10, 12] Recombinant α-synuclein spontaneously aggregates into fibers upon incubation at high concentrations 2 mg/ml. To assay the α-synuclein aggregation the proteins will then be incubated at 37° C. (50 mM Tris, pH 7.5) with shaking in the presence and absence of the inositols in varying ratios from 1:1 to 1:100 protein:inositol. The products of these incubations will be evaluated with the biophysical techniques discussed below. Negative stain electron microscopy is an excellent tool to examine the gross morphology of the protein aggregates formed. Samples will be examined as a function of time and scyllo-inositol concentrations.

α-synuclein = biological target: T2, α-synuclein (Homo sapiens, UniProt P37840, A53T); test: Thioflavin T binding assay of α-synuclein aggregation; assay type: biochemical; details: α-synuclein 2 mg/ml, 24 hrs at 37° C., scyllo-inositol 1:20 ratio by weight
T2 construct: made in house; host or cells: E. coli
Method: as §1, with “below.” for “below. Negative stain electron microscopy is an excellent tool to examine the gross morphology of the protein aggregates formed. Samples will be examined as a function of time and scyllo-inositol concentrations.”
Fluorimetry. Fluorescent probes are exceptionally useful to follow the aggregation kinetics of proteins. Two fluorescent probes, Thioflavin T (ThT) and 1-Anilinonaphthalene-8-sulfonic acid (ANS) are the most commonly used probes for α-synuclein. […] Thus, the amyloid fibrils formed from the proteins used in these studies bind ThT and binding is monitored by an increase in fluorescence intensity. Oligomers other than the amyloid fibrils can also have significant β-sheet character and bind ThT. ANS binds to hydrophobic unstructured proteins and is complementary to ThT fluorescence assays. Upon binding in a hydrophobic environment ANS undergoes an increase in quantum yield and a blue shift in its fluorescence emission maximum.

SMILES: O[C@H]1[C@H](O)[C@@H](O)[C@H](O)[C@@H](O)[C@@H]1O [scyllo-inositol]
- disaggregation of preformed Aβ peptide fibrils (Aβ peptide fibrils): able to disaggregate preformed Aβ peptide fibrils
- aggregates produced (negative stain EM, FIG. 1) ([1]; A53T mutant, after 24 hours of incubation at 37° C., without compound: characteristic α-synuclein fibrils): a few thin fibrils with the majority of the visible protein being present as amorphous aggregates
- α-synuclein fibres formed (negative stain electron microscopy, FIG. 1 legend) ([1]; α-synuclein 2 mg/ml, scyllo-inositol 1:20 ratio by weight, 2 days at 37° C., alone: long mature fibres): only small aggregates could be detected
- Thioflavin T fluorescence (FIG. 2) (α-synuclein): fluorescence increases upon short incubations with scyllo-inositol and the fluorescence decreases with time
